Four compounds from ChEMBL document CHEMBL1137612, “Furan based cyclic oligopeptides selectively target G-quadruplex” (J Med Chem, 2007) can be followed below.

Calls of active or inactive are those of the source. The rule behind the calls is not given here.

Assay [1] is filed under the species Homo sapiens. The experiment in a line: Stabilization effect on human telomeric DNA assessed as differential melting temperature by FRET assay.
Assay [2] is filed under the species Homo sapiens. Nature of the assay: Stabilization effect on human telomeric DNA assessed as differential melting temperature by DSC assay. (In DSC, transitions show as peaks or steps in heat flow.)
The species entered for assay [3] is Homo sapiens. Nature of the assay: Stabilization effect on human telomeric DNA assessed as differential melting temperature in the presence of double strand DNA by FRET assay.
Assay [4] can be described thus: Binding affinity to hairpin DNA. More on the design: species or system Homo sapiens.
A short description of assay [5]: Binding affinity to human telomeric DNA.
Assay [6] in a line: Cell cycle arrest in […] cells assessed as accumulation at Sub G1 phase at 75 uM. As to conditions: Homo sapiens. The format is functional, cell-based.
Assay [7] can be described thus: Cell cycle arrest in […] cells assessed as accumulation at Sub G1 phase at 300 uM. The assay is classed as functional, cell-based. The note with it: Homo sapiens.
The nature of assay [8]: Cell cycle arrest in […] cells assessed as accumulation at G2/M phase at 75 uM. As to conditions: Homo sapiens. The assay is classed as functional, cell-based.
Assay [9] is described as follows: Cytotoxicity against […] cells by MTT assay. The format is functional, cell-based. The note with it: Homo sapiens. (Tetrazolium assays rely on reduction of a dye to a coloured formazan, in cell work by metabolically active cells.)
The nature of assay [10]: Cell cycle arrest in […] cells assessed as accumulation at G2/M phase at 300 uM. As to conditions: Homo sapiens. The format is functional, cell-based.
The nature of assay [11]: Cell cycle arrest in […] cells assessed as accumulation at S phase at 300 uM. The format is functional, cell-based. As to conditions: Homo sapiens.
The species named for assay [12] is Homo sapiens. Nature of the assay: Inhibition of telomerase extension activity at 50 uM by PCR based TRAP assay.
Assay [13] is described as follows: Cell cycle arrest in […] cells assessed as accumulation at S phase at 75 uM. The format is functional, cell-based. The note with it: Homo sapiens.
The nature of assay [14]: Cell cycle arrest in […] cells assessed as accumulation at G1 phase at 300 uM. The assay is classed as functional, cell-based. As to conditions: Homo sapiens.
The nature of assay [15]: Cell cycle arrest in […] cells assessed as accumulation at G1 phase at 75 uM. The assay is classed as functional, cell-based. As to conditions: Homo sapiens.

With `NCc1cc2oc1CNC(=O)C1=CC=C(CNC(=O)C3=CC=C(CNC2=O)O3)O1`, the thermal shift (ΔTm) in the assay filed under Homo sapiens [1] turned out to be 9 °C; in the assay listed under Homo sapiens [2], 2 °C; in the assay listed under Homo sapiens [3], 7 °C. Further, the figures for the Kd in assay [4] and in assay [5] were 950 µM and 29 µM, respectively.

As for `NCCC(=O)NCc1cc2oc1CNC(=O)C1=CC=C(CNC(=O)C3=CC=C(CNC2=O)O3)O1`, the ΔTm in the assay filed under Homo sapiens [1] worked out at 10 °C; in the assay filed under Homo sapiens [2] it was 3 °C; in the assay listed under Homo sapiens [3], 7 °C. The dissociation constant (Kd) was 700 µM in assay [4] and 21 µM in assay [5].

For `NCC1=C2CNC(=O)C3=CC=C(CNC(=O)c4cc(CN)c(o4)CNC(=O)C4=CC=C(CNC(=O)C(=C1)O2)O4)O3`, the results for the ΔTm in the assay listed under Homo sapiens [1], in the assay filed under Homo sapiens [2] and in the assay filed under Homo sapiens [3] were 12 °C, 6.6 °C and 12 °C, respectively. Also, the Activity in assay [6] came out at 47%; in assay [7] it was 49%; in [8], 18.8%; in assay [10], 5.5%; in [11] it was 4.8%; in assay [13], 8.8%. In addition, the Activity in [14] was determined as 39%; in assay [15] it was 23.5%. Further, the IC50 in [9] was 500 µM. The outcome in the assay listed under Homo sapiens [12] was Active. This compound yielded a Kd in assay [5] of 14.5 µM.

Regarding `NCCC(=O)NCC1=C2CNC(=O)C3=CC=C(CNC(=O)c4cc(CNC(=O)CCN)c(o4)CNC(=O)C4=CC=C(CNC(=O)C(=C1)O2)O4)O3`, the ΔTm in the assay filed under Homo sapiens [1] came out at 17 °C; in the assay filed under Homo sapiens [2], 9.2 °C; in the assay filed under Homo sapiens [3] it was 17 °C. Besides, the Activity turned out to be 46% in assay [6]; 48.5% in assay [7]; 11.5% in assay [8]; 4.8% in assay [10]; 4.2% in assay [11]; 7% in assay [13]. The Activity was 41.4% in assay [14] and 31.5% in assay [15]. In addition, the IC50 in assay [9] stood at 500 µM. Also, the outcome in the assay filed under Homo sapiens [12] was Active. Also, the dissociation constant Kd in assay [5] was determined as 3.1 µM.

As a reminder, the ΔTm is the shift of the melting midpoint relative to a reference. By Kd is commonly meant the free concentration of one partner at which half of the binding sites on the other are occupied at equilibrium, for simple one-to-one binding. Usually IC50 stands for the point on the concentration scale where inhibition reaches its midpoint.
